Laboratory results taken from the NIST ThermoML archive (doi:10.1016/j.jct.2016.04.014).

Experiment: xn = mol fraction of the nth substance listed
Conditions: Liquid, Vibrating tube method

CCCCCCC [heptane] + CCO
mass density [kg/m3]
Conditions | 100 kPa | 500 kPa | 5000 kPa | 10000 kPa | 15000 kPa | 20000 kPa | 25000 kPa | 30000 kPa | 35000 kPa | 40000 kPa
293.15 K, x1 = 0.2505 | 737.7 | 738.1 | 742.1 | 746.4 | 750.4 | 754.3 | 757.9 | 761.4 | 764.7 | 768
293.15 K, x1 = 0.5004 | 711 | 711.3 | 715.4 | 719.8 | 723.8 | 727.7 | 731.3 | 734.8 | 738.1 | 741.4
293.15 K, x1 = 0.7501 | 694.3 | 694.6 | 698.7 | 703 | 707.1 | 710.9 | 714.6 | 718 | 721.4 | 724.6
303.15 K, x1 = 0.2505 | 728.9 | 729.3 | 733.6 | 738.2 | 742.4 | 746.5 | 750.3 | 754 | 757.5 | 760.8
303.15 K, x1 = 0.5004 | 702.1 | 702.5 | 706.9 | 711.5 | 715.8 | 719.9 | 723.8 | 727.4 | 730.9 | 734.3
303.15 K, x1 = 0.7501 | 685.4 | 685.8 | 690.3 | 694.9 | 699.2 | 703.3 | 707.1 | 710.8 | 714.3 | 717.6
313.15 K, x1 = 0.2505 | 719.9 | 720.3 | 725 | 729.8 | 734.3 | 738.6 | 742.6 | 746.5 | 750.1 | 753.7
313.15 K, x1 = 0.5004 | 693 | 693.4 | 698.2 | 703.1 | 707.7 | 712 | 716.1 | 720 | 723.7 | 727.2
313.15 K, x1 = 0.7501 | 676.4 | 676.9 | 681.6 | 686.6 | 691.2 | 695.5 | 699.6 | 703.4 | 707.1 | 710.6
323.15 K, x1 = 0.2505 | 710.6 | 711.1 | 716.1 | 721.2 | 726.1 | 730.6 | 734.8 | 738.9 | 742.7 | 746.4
323.15 K, x1 = 0.5004 | 683.6 | 684.1 | 689.2 | 694.5 | 699.4 | 704 | 708.4 | 712.4 | 716.3 | 720.1
323.15 K, x1 = 0.7501 | 667.2 | 667.6 | 672.8 | 678.1 | 683 | 687.7 | 692 | 696 | 699.9 | 703.6
333.15 K, x1 = 0.2505 | 701.1 | 701.6 | 706.9 | 712.5 | 717.6 | 722.4 | 726.9 | 731.2 | 735.2 | 739.1
333.15 K, x1 = 0.5004 | 674 | 674.5 | 680 | 685.7 | 691 | 695.9 | 700.5 | 704.8 | 708.9 | 712.8
333.15 K, x1 = 0.7501 | 657.7 | 658.2 | 663.8 | 669.6 | 674.9 | 679.8 | 684.3 | 688.6 | 692.7 | 696.6
353.15 K, x1 = 0.2505 | – | 681.4 | 687.7 | 694.1 | 700 | 705.5 | 710.5 | 715.3 | 719.7 | 724
353.15 K, x1 = 0.5004 | – | 654.2 | 660.8 | 667.5 | 673.6 | 679.1 | 684.3 | 689.1 | 693.7 | 698.1
353.15 K, x1 = 0.7501 | – | 638.4 | 645.1 | 651.8 | 657.9 | 663.5 | 668.6 | 673.4 | 678 | 682.3
373.15 K, x1 = 0.2505 | – | 659.3 | 666.9 | 674.5 | 681.4 | 687.6 | 693.3 | 698.6 | 703.6 | 708.4
373.15 K, x1 = 0.5004 | – | 632.2 | 640.2 | 648.1 | 655.3 | 661.7 | 667.5 | 672.9 | 678 | 682.9
373.15 K, x1 = 0.7501 | – | 617.2 | 625.3 | 633.3 | 640.4 | 646.8 | 652.6 | 658 | 663 | 667.9
